Counter-ions that a name gives are not always drawn.
Columns and labels:
[1] = Solubility in water at 20° C.; format: physicochemical
Excerpt: Solubility is especially challenging with obicetrapib. […] It would be desirable to have a solid form of obicetrapib that would deliver a larger amount of obicetrapib.

[2] = molecular target: T1, Cholesterol Ester Transfer Protein (CETP) (Homo sapiens, UniProt P11597); conditions: repeated daily dosages (once a day) as low as 2.5 mg; cited from earlier work
T1 construct: CETP is a plasma protein secreted primarily by liver and adipose tissue; host or cells: endogenous plasma CETP of dosed clinical-study subjects
T1 sequence (P11597 18-493): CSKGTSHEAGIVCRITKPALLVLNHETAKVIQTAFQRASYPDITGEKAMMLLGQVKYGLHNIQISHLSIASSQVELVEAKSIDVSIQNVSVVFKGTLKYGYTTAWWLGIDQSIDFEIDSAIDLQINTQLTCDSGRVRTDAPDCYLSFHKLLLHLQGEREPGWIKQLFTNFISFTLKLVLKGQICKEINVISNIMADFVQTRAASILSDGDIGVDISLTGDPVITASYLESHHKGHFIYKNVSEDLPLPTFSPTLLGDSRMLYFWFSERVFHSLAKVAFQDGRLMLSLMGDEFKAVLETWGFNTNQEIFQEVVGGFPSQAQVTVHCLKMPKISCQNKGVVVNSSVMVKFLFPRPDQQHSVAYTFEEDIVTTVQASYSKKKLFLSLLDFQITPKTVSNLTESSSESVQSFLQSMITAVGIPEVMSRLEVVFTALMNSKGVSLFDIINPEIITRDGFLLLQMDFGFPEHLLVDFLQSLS

[3] = clinical studies; cited from earlier work
[4] = Physical stability at 70° C./75% relative humidity, by XRPD; format: physicochemical
Excerpt: FIG. 6 is a plot of x-ray powder diffraction pattern taken of crystalline obicetrapib hemicalcium, and FIG. 7 is a plot of x-ray powder diffraction patterns taken of crystalline obicetrapib hemicalcium under stress conditions. In FIG. 7, there are four diffraction patterns shown based on stability study set forth in Example 27. Pattern 1 is an x-ray powder diffraction pattern of a sample of amorphous obicetrapib hemicalcium. Pattern 2 is the x-ray powder diffraction pattern of a sample of crystalline obicetrapib hemicalcium. In pattern 3, the sample of crystalline obicetrapib hemicalcium was exposed to 70° C. at 75% relative humidity for one day. […] was taken before the sample was placed on stability.
XRPD was performed with Panalytical X'Pert^3 Powder diffractometer using an incident beam of Cu radiation produced using an Empyran tube, fine focused source, on a silicon zero-background holder. […] Approximately 5 to 10 mg of sample was placed on a silicon zero-background holder and flattened manually using an aluminum spatula to minimize difference in the overall sample height. The holder was then loaded on the instrument for analysis. The XRPD parameters used are listed in Table 10.
Stability study was conducted on crystalline and amorphous forms of obicetrapib at 70° C./75% relative humidity (RH). The solids were placed into a 4.0 ml glass vial without caps (open condition) and stored at 70° C./75% RH. […] The solids were analyzed by XRPD for physical stability and by HPLC for chemical purity. The sample collected at each time point was dissolved in methanol before HPLC analysis. In order to minimize the effect of potential analyte adsorption on the filter, the initial 0.5 mL of supernatant passing through the filter was discarded prior to collecting sample for HPLC analysis. Purity for each sample was determined based on peak area percent and compared to the sample at T=0.

[5] = Moisture uptake / hygroscopicity; format: physicochemical
Excerpt: When exposed to relative humidities approaching 90%, moisture uptake has been measured to be typically less than about 5% for example. […] Other drawbacks commonly associated with manufacturing and using amorphous materials are similarly not present. For example, amorphous materials are often challenging to make chemically pure.

[6] = Loss of crystallinity on drying, by XRPD (FIG. 18); format: physicochemical; conditions: 48 hours at 55° C. at a pressure of 2 mbar
Procedure: Upon stress, crystalline obicetrapib HCl loses its crystallinity. In FIG. 18, pattern 2 reflects crystalline obicetrapib HCl subject to a mild drying treatment whereby surface solvent was removed and it can be seen that this compound is crystalline. By comparison, the sample whose x-ray powder diffraction was measured in pattern 1 was subject to a stronger drying treatment at 48 hours at 55° C. at a pressure of 2 mbar. […] The amorphous pattern, therefore, represents HCl obicetrapib which is not crystalline obicetrapib. It may be obicetrapib, but is believed to have HCl associated with the obicetrapib as a solvate and thus is HCl obicetrapib, but with a lower chloride content than typically found in the ranges found for crystalline obicetrapib HCl. In some embodiments, that chloride content is less than 0.1% by weight such as between about 0.01% and 0.1% by weight.
Diffraction patterns were measured using a Thermo Fisher Scientific ARL Equinox 1000 powder diffractometer. The diffractometer is equipped with a copper source and a germanium (111) monochromator providing monochromatic Cu Kα1 radiation, and a position sensitive gas-ionization detector.
Samples were measured in reflection mode using an A1 sample holder without any further preparation (i.e., grinding). […]

For `CCOC(=O)N1c2ccc(C(F)(F)F)cc2[C@@H](N(Cc2cc(C(F)(F)F)cc(C(F)(F)F)c2)c2ncc(OCCCC(=O)O)cn2)C[C@H]1CC` [obicetrapib, (2R,4S)-4-{[3,5 bis(trifluoromethyl)benzyl]-[5-(3-carboxypropoxy)pyrimidin-2-yl]amino}-2-ethyl-6-trifluoromethyl-3,4-dihydro-2H-quinoline-1-carboxylic acid ethyl ester], the solubility in water [1] is given as “less than 0.1 mg/mL”, the CETP inhibition [2] is given as “near complete CETP inhibition” and the serious side effects [3] is given as “does not lead to serious side effects”.

In the case of `CCOC(=O)N1c2ccc(C(F)(F)F)cc2[C@@H](N(Cc2cc(C(F)(F)F)cc(C(F)(F)F)c2)c2ncc(OCCCC(=O)[O-])cn2)C[C@H]1CC.CCOC(=O)N1c2ccc(C(F)(F)F)cc2[C@@H](N(Cc2cc(C(F)(F)F)cc(C(F)(F)F)c2)c2ncc(OCCCC(=O)[O-])cn2)C[C@H]1CC.[Ca+2]` [Crystalline obicetrapib hemicalcium, reference compound], the “physical stability of solid form (XRPD)” value ([4]; 7 days, open vial) is reported as “the result remains the same” and the “physical stability of solid form (XRPD)” value ([4]; one day, open vial) is reported as “near total loss of crystallinity”.

For `CCOC(=O)N1c2ccc(C(F)(F)F)cc2[C@@H](N(Cc2cc(C(F)(F)F)cc(C(F)(F)F)c2)c2ncc(OCCCC(=O)O)cn2)C[C@H]1CC` [Amorphous obicetrapib hemicalcium], the “physical stability of solid form (XRPD)” value ([4]; 7 days, open vial) was “remained amorphous” and the “physical stability of solid form (XRPD)” value ([4]; 14 days) was “remained amorphous”.

With `CCOC(=O)N1c2ccc(C(F)(F)F)cc2[C@@H](N(Cc2cc(C(F)(F)F)cc(C(F)(F)F)c2)c2ncc(OCCCC(=O)O)cn2)C[C@H]1CC` [crystalline obicetrapib HCl, (2R,4S)-4-{[3,5-bis(trifluoromethyl)benzyl]-[5-(3-carboxypropoxy)pyrimidin-2-yl]amino}-2-ethyl-6-trifluoromethyl-3,4-dihydro-2H-quinoline-1-carboxylic acid ethyl ester hydrochloride] the hygroscopicity [5] was “hygroscopic” and the “solid form after drying (XRPD)” value [6] was “changed the material from crystalline to amorphous”.

Reference: US12378221B2, “Salts of obicetrapib and processes for their manufacture and intermediates thereof” (NewAmsterdam Pharma B.V., priority 2022, dated 2025)
